Here are results for 14 compounds from ChEMBL document CHEMBL4699402, “Identification of N-benzothiazolyl-2-benzenesulfonamides as novel ABCA1 expression upregulators” (RSC Med Chem, 2020).

A word on the EC50: it is the concentration that produces a half-maximal response. Read a low EC50 as greater potency.

A short description of data set [1]: Upregulation of ABCA1 expression in human HepG2 cells expressing luciferase plasmid assessed as maximal increase incubated for 24 hrs by luciferase reporter gene assay relative to control. The format is functional. A general note: A reporter such as luciferase makes a cellular process visible.
Data set [2] in a line: Upregulation of ABCA1 expression in human HepG2 cells expressing luciferase plasmid incubated for 24 hrs by luciferase reporter gene assay. It counts as functional, cell-based. The conditions noted are these: HepG2, 24 h.
For data set [3], the system named is RAW264.7. The experiment in a line: Upregulation of ABCA1 protein expression in mouse RAW264.7 cells incubated for 24 hrs by western blot analysis. It counts as functional, cell-based. To be noted: dose microM 2.5-10, time 24.0 hrs.
Data set [4] has as its system HepG2. The experiment in a line: Cytotoxicity against human HepG2 cells assessed as reduction in cell viability incubated for 72 hrs measured by CCK8 assay. It counts as cell-based. The conditions noted are these: hepg2, 72 h. In general terms: Tetrazolium dyes change colour on reduction, which living cells bring about.
Data set [5] can be described thus: Upregulation of ABCA1 expression in human HepG2 cells expressing luciferase plasmid assessed as maximal fold increase incubated for 24 hrs by luciferase reporter gene assay relative to control. The format is functional.
In data set [6] the test system is RAW264.7. The experiment in a line: Upregulation of ABCA1 mRNA expression in mouse RAW264.7 cells at 5 uM incubated for 24 hrs by RT-qPCR analysis. The format is functional, cell-based. (Real-time PCR tracks product formation cycle by cycle.)
Data set [7] is described as follows: Potency index, ration of WY06 EC50 to test compound EC50 for upregulation of ABCA1 expression in human HepG2 cells expressing luciferase plasmid incubated for 24 hrs by luciferase reporter gene assay. It counts as functional.
For data set [8], the system named is HepG2. In words: Upregulation of ABCA1 expression in human HepG2 cells expressing luciferase plasmid incubated for 24 to 48 hrs by luciferase reporter gene assay. The format is functional, cell-based. To be noted: dose microM 0.78-50, time hrs 24-48.
Data set [9] in a line: Upregulation of ABCA1 mRNA expression in mouse RAW264.7 cells assessed as maximal upregulation at 10 uM incubated for 24 hrs by RT-qPCR analysis relative to control. It counts as functional.
Data set [10] in a line: Upregulation of ABCA1 protein expression in mouse RAW264.7 cells assessed as maximal increase at 10 uM incubated for 24 hrs by western blot analysis relative to control. The format is functional.
Data set [11] concerns RAW264.7. The experiment in a line: Induction of cholesterol efflux in mouse RAW264.7 cells assessed as decrease in cellular 22-NBD-cholesterol content at 2.5 to 10 uM incubated for 24 hrs by DAPI staining based fluorescence analysis. It counts as functional, cell-based. The conditions noted are these: dose microM 2.5-10, time 24.0 hrs.
Data set [12] has as its system RAW264.7. The experiment in a line: Upregulation of ApoA-I protein expression in mouse RAW264.7 cells at 2.5 to 10 uM by western blot analysis. It counts as functional, cell-based. The conditions noted are these: dose microM 2.5-10.
The test system of data set [13] is RAW264.7. The experiment in a line: Upregulation of ABCA1 mRNA expression in mouse RAW264.7 cells at 2.5 to 10 uM incubated for 24 hrs by RT-qPCR analysis. The format is functional, cell-based. The conditions noted are these: dose microM 2.5-10, time 24.0 hrs.
Data set [14] concerns RAW264.7. The experiment in a line: Upregulation of ABCA1 protein expression in mouse RAW264.7 cells at 2.5 to 10 uM incubated for 24 hrs by western blot analysis. It counts as functional, cell-based. To be noted: dose microM 2.5-10, time 24.0 hrs.
Data set [15] can be described thus: Upregulation of ABCA1 mRNA expression in mouse RAW264.7 cells assessed as maximal fold increase at 5 uM incubated for 24 hrs by RT-qPCR analysis relative to control. The format is functional.

Active and inactive are the calls of the source. The rule behind the calls is not given here.

In the case of `CCOC(=O)CN(c1nc2ccc(Cl)cc2s1)S(=O)(=O)c1ccc(N)cc1`, the values for the Activity (in [1]; in the data set on RAW264.7 [3]; in the data set with HepG2 [4]) were 174%, “Dose-dependent effect” and “Non-Toxic”, respectively. Further, the EC50 in [2] is 0.37 µM. Besides, the “fold change (FC)” value in data set [5] stood at 1.74. Moreover, in the data set with RAW264.7 [6], the outcome was Active. The “Ratio EC50” value in data set [7] is listed as “>=15”.
As for `N#CCN(c1nc2ccccc2s1)S(=O)(=O)c1cccc(N)c1`, the Activity in data set [1] is 124%. Further, in [2], the EC50 is over 50 µM.
On to `N#CCN(c1nc2ccc(Cl)cc2s1)S(=O)(=O)c1ccc(N)cc1`, for which the Activity was 206% in [1]; “Dose-dependent effect” in the data set with HepG2 [8]; 210% in [9]; “Dose-dependent effect” in the data set with RAW264.7 [3]; 240% in [10]; “Non-Toxic” with HepG2 [4]. The EC50 in data set [2] turned out to be 0.41 µM. In the data set on RAW264.7 [11], the outcome was Active. Further, in the data set with RAW264.7 [12], the result was inactive. In data set [7], the “Ratio EC50” value is listed as over 15.
As for `C=CCN(c1nc2ccc(F)cc2s1)S(=O)(=O)c1cccc(N)c1`, in data set [1], the Activity was found to be 152%. In data set [2], this compound registered an EC50 of 26 µM.
Consider `C=CCN(c1nc2ccc(F)cc2s1)S(=O)(=O)c1ccc(N)cc1`, for which, in data set [1], the Activity amounted to 135%. The same compound yielded an EC50 in data set [2] of 7.4 µM.
`C=CCN(c1nc2ccccc2s1)S(=O)(=O)c1cccc(N)c1`: in [1], the Activity amounted to 136%. Also, the EC50 in [2] was over 50 µM.
Regarding `CCOC(=O)CN(c1nc2ccc(OC)cc2s1)S(=O)(=O)c1ccc(N)cc1`, the Activity in [1] is listed as 138%; with HepG2 [4], “Non-Toxic”. This compound also returned an EC50 in [2] of 6.38 µM. In addition, the “fold change (FC)” value in data set [5] worked out at 1.38. The outcome in the data set on RAW264.7 [13] and in the data set on RAW264.7 [14] was inactive.
For the compound `N#CCN(c1nc2ccc(Cl)cc2s1)S(=O)(=O)c1cccc(N)c1`, the Activity in [1] is 168%; in the data set with RAW264.7 [3] it was “Dose-dependent effect”; in the data set on HepG2 [4], “Non-Toxic”. The compound also showed an EC50 in data set [2] of 5.84 µM. Also, the “fold change (FC)” value was 1.68 in [5] and 1.5 in data set [15].
In the case of `CCOC(=O)CN(c1nc2ccc(F)cc2s1)S(=O)(=O)c1ccc(N)cc1`, the Activity in data set [1] is reported as 167%; with HepG2 [4], “Non-Toxic”. In addition, the EC50 in data set [2] was 0.97 µM.
Take `C=CCN(c1nc2ccccc2s1)S(=O)(=O)c1ccc(N)cc1`: the Activity in data set [1] came to 115%. This compound also yielded an EC50 in data set [2] of 33.4 µM.
With `C=CCN(c1nc2ccc(Cl)cc2s1)S(=O)(=O)c1ccc(N)cc1`, the Activity in data set [1] is listed as 135%. The compound also registered an EC50 in data set [2] of 10.6 µM.
On to `CCOC(=O)CN(c1nc2ccccc2s1)S(=O)(=O)c1ccc(N)cc1`, for which the Activity is given as 209% in data set [1] and “Non-Toxic” in the data set with HepG2 [4]. The EC50 in [2] is 1.24 µM.
Turning to `N#CCN(c1nc2ccccc2s1)S(=O)(=O)c1ccc(N)cc1`, the Activity in data set [1] is reported as 157%. In addition, in [2], a half-maximal response (EC50) required 8.51 µM.
As to `N#CCN(c1nc2ccc(F)cc2s1)S(=O)(=O)c1ccc(N)cc1`, in [1], the Activity was determined as 163%. Besides, it took 2.57 µM to reach a half-maximal effect in [2] (EC50).
